Like-named read-outs stand apart in the source and are kept apart here.
How the values were obtained:
rat = test system: rat; design: method as in SRT2104 Investigator's Brochure; details: ref SRT2104 Investigator's Brochure, cited from earlier work; for NOAEL: 28 days
[1] = test system: elderly male and female volunteers; experiment: Safety and tolerability, treatment-emergent adverse events in elderly volunteers; type: in vivo, human; details: for serum creatinine of one subject: 0.5 g/day cohort
Procedure: This was a phase I, single-center, double-blind, randomized, placebo-controlled, parallel-arm study to assess the safety, tolerability, pharmacokinetic and initial pharmacodynamic properties of SRT2104 (Sirtris Pharmaceuticals, Cambridge, MA, USA) administered for the first time to male and female elderly volunteers 60 to 80 years of age. Volunteers were enrolled between 01 Oct 2009 and 5 Feb 2010. Doses of 0.5 and 2.0 g or matching placebo were administered once daily for 28 consecutive days. The selection of the doses investigated in this study was based upon safety and pharmacokinetic data obtained from a previous clinical study involving SRT2104 [19]. Suitability of participants was defined on the basis of a medical history, physical examination, vital signs, electrocardiogram and laboratory measurements. Subjects were required to have normal fasting glucose levels (4.4 to 6.0 mmol/L) at screening and a body mass index of at least 18 kg/m^2 and no greater than 30 kg/m^2. […] Subjects were deemed ineligible if they participated in any clinical trial with an investigative medicinal product within the past three months prior to the first dose in the current study, had been exposed to more than three new chemical entities within 12 months of enrollment, or used other concomitant medications and herbal products in the previous 3 months that in the opinion of the investigator could interfere with the study procedures or compromise subject safety. Additional exclusions included: women of childbearing potential and non-sterile men, unless they agreed to use acceptable method of contraception; history of alcoholism or drug abuse (including a positive pre-study drug/alcohol test at screening); use of tobacco or nicotine products; history of complications when donating blood or known relative inaccessibility of veins for venipuncture; donation of blood within three months of enrolment; history of significant drug or other allergies. Participants were asked to maintain their usual level of physical activity for the duration of the study.
At every visit (including at screening and follow-up), blood and urine samples were collected for clinical laboratory assessments (general blood biochemistry, full blood count, coagulation parameters and urinalysis). On the same days, physical examination, vital signs (resting pulse rate, respiration rate, temperature, and blood pressure readings), pre- and post-dose 12-lead ECG and a review of adverse events (AE) and any medications received were also performed. Safety evaluations were based on the incidence, severity and type of AEs and clinically significant changes from baseline in physical examination findings, vital signs or clinical laboratory results.

[2] = 28 days continuous administration

In the case of Cc1nc(-c2cccnc2)sc1C(=O)Nc1ccccc1-c1cn2c(CN3CCOCC3)csc2n1 [SRT2104], the “vacuolation of pancreatic acinar cells, animals affected” value (rat; female rat, Day 29, not seen after 4 weeks recovery) is listed as 3/10, the NOAEL (rat; female rats) is listed as 1000 mg/kg and the NOAEL (rat; male rats, highest dose tested) is listed as 2000 mg/kg. The tolerability (rat; rat, up to 2.0 g/kg for 28 days) was “well tolerated at all doses”, the safety and tolerability ([1]; 0.5 and 2.0 g/day for 28 days) was “generally safe and well tolerated” and the “Abdominal distension, number of subjects” value ([1]; 0.5 g/day (n = 8)) was 1. For the same compound, the “Abdominal distension, percent of subjects” value ([1]; 0.5 g/day (n = 8)) was “(13%)”, the “Abdominal pain lower, number of subjects” value ([1]; 0.5 g/day (n = 8)) was 1 and the “Abdominal pain lower, percent of subjects” value ([1]; 0.5 g/day (n = 8)) was “(13%)”. For the same compound, the “Any adverse event, percent of subjects” value ([1]; 0.5 g/day (n = 8)) was “(100%)”, the “Application site haematoma, number of subjects” value ([1]; 0.5 g/day (n = 8)) was 1 and the “Application site haematoma, percent of subjects” value ([1]; 0.5 g/day (n = 8)) was “(13%)”. The “Arthralgia, number of subjects” value ([1]; 0.5 g/day (n = 8)) was 1, the “Arthralgia, percent of subjects” value ([1]; 0.5 g/day (n = 8)) was “(13%)” and the “Back pain, number of subjects” value ([1]; 0.5 g/day (n = 8)) was 1. The “Back pain, percent of subjects” value ([1]; 0.5 g/day (n = 8)) was “(13%)”, the “Blood creatinine increased, number of subjects” value ([1]; 0.5 g/day (n = 8)) was 1 and the “Blood creatinine increased, percent of subjects” value ([1]; 0.5 g/day (n = 8)) was “(13%)”. For the same compound, the “Constipation, number of subjects” value ([1]; 0.5 g/day (n = 8)) was 0, the “Cough, number of subjects” value ([1]; 0.5 g/day (n = 8)) was 0 and the “Decreased Appetite, number of subjects” value ([1]; 0.5 g/day (n = 8)) was 1. The “Decreased Appetite, percent of subjects” value ([1]; 0.5 g/day (n = 8)) was “(13%)”, the “Diarrhoea, number of subjects” value ([1]; 0.5 g/day (n = 8)) was 1 and the “Diarrhoea, percent of subjects” value ([1]; 0.5 g/day (n = 8)) was “(13%)”. For the same compound, the “Dizziness, number of subjects” value ([1]; 0.5 g/day (n = 8)) was 0, the “Dry eye, number of subjects” value ([1]; 0.5 g/day (n = 8)) was 0 and the “Dysphonia, number of subjects” value ([1]; 0.5 g/day (n = 8)) was 0. For the same compound, the “Epistaxis, number of subjects” value ([1]; 0.5 g/day (n = 8)) was 0, the “Erythema, number of subjects” value ([1]; 0.5 g/day (n = 8)) was 1 and the “Erythema, percent of subjects” value ([1]; 0.5 g/day (n = 8)) was “(13%)”. For the same compound, the “Eye pain, number of subjects” value ([1]; 0.5 g/day (n = 8)) was 0, the “Fall, number of subjects” value ([1]; 0.5 g/day (n = 8)) was 0 and the “Fatigue, number of subjects” value ([1]; 0.5 g/day (n = 8)) was 0. For the same compound, the “Headache, number of subjects” value ([1]; 0.5 g/day (n = 8)) was 5, the “Headache, percent of subjects” value ([1]; 0.5 g/day (n = 8)) was “(63%)” and the “Insomnia, number of subjects” value ([1]; 0.5 g/day (n = 8)) was 1. The “Insomnia, percent of subjects” value ([1]; 0.5 g/day (n = 8)) was “(13%)”, the “Joint stiffness, number of subjects” value ([1]; 0.5 g/day (n = 8)) was 0 and the “Lethargy, number of subjects” value ([1]; 0.5 g/day (n = 8)) was 1. The “Lethargy, percent of subjects” value ([1]; 0.5 g/day (n = 8)) was “(13%)”, the “Limb injury, number of subjects” value ([1]; 0.5 g/day (n = 8)) was 0 and the “Mass, number of subjects” value ([1]; 0.5 g/day (n = 8)) was 0. For the same compound, the “Migraine, number of subjects” value ([1]; 0.5 g/day (n = 8)) was 1, the “Migraine, percent of subjects” value ([1]; 0.5 g/day (n = 8)) was “(13%)” and the “Muscle spasms, number of subjects” value ([1]; 0.5 g/day (n = 8)) was 0. For the same compound, the “Muscular weakness, number of subjects” value ([1]; 0.5 g/day (n = 8)) was 0, the “Nasopharyngitis, number of subjects” value ([1]; 0.5 g/day (n = 8)) was 1 and the “Nasopharyngitis, percent of subjects” value ([1]; 0.5 g/day (n = 8)) was “(13%)”. The “Nausea, number of subjects” value ([1]; 0.5 g/day (n = 8)) was 1, the “Nausea, percent of subjects” value ([1]; 0.5 g/day (n = 8)) was “(13%)” and the “Number of subjects experiencing any adverse event” value ([1]; 0.5 g/day (n = 8)) was 8. The “Palpitations, number of subjects” value ([1]; 0.5 g/day (n = 8)) was 1, the “Palpitations, percent of subjects” value ([1]; 0.5 g/day (n = 8)) was “(13%)” and the “Procedural pain, number of subjects” value ([1]; 0.5 g/day (n = 8)) was 1. For the same compound, the “Procedural pain, percent of subjects” value ([1]; 0.5 g/day (n = 8)) was “(13%)”, the “Rash, number of subjects” value ([1]; 0.5 g/day (n = 8)) was 1 and the “Rash, percent of subjects” value ([1]; 0.5 g/day (n = 8)) was “(13%)”. The “Sensation of heaviness, number of subjects” value ([1]; 0.5 g/day (n = 8)) was 1, the “Sensation of heaviness, percent of subjects” value ([1]; 0.5 g/day (n = 8)) was “(13%)” and the “Sleep disorder, number of subjects” value ([1]; 0.5 g/day (n = 8)) was 1. The “Sleep disorder, percent of subjects” value ([1]; 0.5 g/day (n = 8)) was “(13%)”, the “Syncope vasovagal, number of subjects” value ([1]; 0.5 g/day (n = 8)) was 0 and the “Tenderness, number of subjects” value ([1]; 0.5 g/day (n = 8)) was 0. For the same compound, the “Thermal burn, number of subjects” value ([1]; 0.5 g/day (n = 8)) was 0, the “Urine output increased, number of subjects” value ([1]; 0.5 g/day (n = 8)) was 1 and the “Urine output increased, percent of subjects” value ([1]; 0.5 g/day (n = 8)) was “(13%)”. For the same compound, the “Vomiting, number of subjects” value ([1]; 0.5 g/day (n = 8)) was 1, the “Vomiting, percent of subjects” value ([1]; 0.5 g/day (n = 8)) was “(13%)” and the “serum creatinine of one subject” value ([1]; day 14 (drug stopped)) was 151 µmol/L. The “serum creatinine of one subject” value ([1]; day 21 (normalization, drug restarted)) was 126 µmol/L, the “serum creatinine of one subject” value ([1]; day 28 (relapse)) was 154 µmol/L and the “serum creatinine of one subject” value ([1]; end of study follow up visit) was 116 µmol/L. The “Abdominal distension, number of subjects” value ([1]; 2.0 g/day (n = 9)) was 0, the “Abdominal pain lower, number of subjects” value ([1]; 2.0 g/day (n = 9)) was 0 and the “Any adverse event, percent of subjects” value ([1]; 2.0 g/day (n = 9)) was “(100%)”. The “Application site haematoma, number of subjects” value ([1]; 2.0 g/day (n = 9)) was 1, the “Application site haematoma, percent of subjects” value ([1]; 2.0 g/day (n = 9)) was “(11%)” and the “Arthralgia, number of subjects” value ([1]; 2.0 g/day (n = 9)) was 0. For the same compound, the “Back pain, number of subjects” value ([1]; 2.0 g/day (n = 9)) was 0, the “Blood creatinine increased, number of subjects” value ([1]; 2.0 g/day (n = 9)) was 0 and the “Constipation, number of subjects” value ([1]; 2.0 g/day (n = 9)) was 1. For the same compound, the “Constipation, percent of subjects” value ([1]; 2.0 g/day (n = 9)) was “(11%)”, the “Cough, number of subjects” value ([1]; 2.0 g/day (n = 9)) was 1 and the “Cough, percent of subjects” value ([1]; 2.0 g/day (n = 9)) was “(11%)”. The “Decreased Appetite, number of subjects” value ([1]; 2.0 g/day (n = 9)) was 0, the “Diarrhoea, number of subjects” value ([1]; 2.0 g/day (n = 9)) was 2 and the “Diarrhoea, percent of subjects” value ([1]; 2.0 g/day (n = 9)) was “(22%)”. The “Dizziness, number of subjects” value ([1]; 2.0 g/day (n = 9)) was 1, the “Dizziness, percent of subjects” value ([1]; 2.0 g/day (n = 9)) was “(11%)” and the “Dry eye, number of subjects” value ([1]; 2.0 g/day (n = 9)) was 0. The “Dysphonia, number of subjects” value ([1]; 2.0 g/day (n = 9)) was 1, the “Dysphonia, percent of subjects” value ([1]; 2.0 g/day (n = 9)) was “(11%)” and the “Epistaxis, number of subjects” value ([1]; 2.0 g/day (n = 9)) was 0. For the same compound, the “Erythema, number of subjects” value ([1]; 2.0 g/day (n = 9)) was 0, the “Eye pain, number of subjects” value ([1]; 2.0 g/day (n = 9)) was 0 and the “Fall, number of subjects” value ([1]; 2.0 g/day (n = 9)) was 0. For the same compound, the “Fatigue, number of subjects” value ([1]; 2.0 g/day (n = 9)) was 0, the “Headache, number of subjects” value ([1]; 2.0 g/day (n = 9)) was 1 and the “Headache, percent of subjects” value ([1]; 2.0 g/day (n = 9)) was “(11%)”. The “Insomnia, number of subjects” value ([1]; 2.0 g/day (n = 9)) was 0, the “Joint stiffness, number of subjects” value ([1]; 2.0 g/day (n = 9)) was 0 and the “Lethargy, number of subjects” value ([1]; 2.0 g/day (n = 9)) was 0. For the same compound, the “Limb injury, number of subjects” value ([1]; 2.0 g/day (n = 9)) was 1, the “Limb injury, percent of subjects” value ([1]; 2.0 g/day (n = 9)) was “(11%)” and the “Mass, number of subjects” value ([1]; 2.0 g/day (n = 9)) was 0. The “Migraine, number of subjects” value ([1]; 2.0 g/day (n = 9)) was 0, the “Muscle spasms, number of subjects” value ([1]; 2.0 g/day (n = 9)) was 0 and the “Muscular weakness, number of subjects” value ([1]; 2.0 g/day (n = 9)) was 0. For the same compound, the “Nasopharyngitis, number of subjects” value ([1]; 2.0 g/day (n = 9)) was 4, the “Nasopharyngitis, percent of subjects” value ([1]; 2.0 g/day (n = 9)) was “(44%)” and the “Nausea, number of subjects” value ([1]; 2.0 g/day (n = 9)) was 0. The “Number of subjects experiencing any adverse event” value ([1]; 2.0 g/day (n = 9)) was 9, the “Palpitations, number of subjects” value ([1]; 2.0 g/day (n = 9)) was 0 and the “Procedural pain, number of subjects” value ([1]; 2.0 g/day (n = 9)) was 0. For the same compound, the “Rash, number of subjects” value ([1]; 2.0 g/day (n = 9)) was 0, the “Sensation of heaviness, number of subjects” value ([1]; 2.0 g/day (n = 9)) was 0 and the “Sleep disorder, number of subjects” value ([1]; 2.0 g/day (n = 9)) was 0. For the same compound, the “Syncope vasovagal, number of subjects” value ([1]; 2.0 g/day (n = 9)) was 1, the “Syncope vasovagal, percent of subjects” value ([1]; 2.0 g/day (n = 9)) was “(11%)” and the “Tenderness, number of subjects” value ([1]; 2.0 g/day (n = 9)) was 0. The “Thermal burn, number of subjects” value ([1]; 2.0 g/day (n = 9)) was 1, the “Thermal burn, percent of subjects” value ([1]; 2.0 g/day (n = 9)) was “(11%)” and the “Urine output increased, number of subjects” value ([1]; 2.0 g/day (n = 9)) was 0. The “Vomiting, number of subjects” value ([1]; 2.0 g/day (n = 9)) was 0, the dose-limiting toxicities [1, 2] was “no dose-limiting toxicities” and the serious adverse events [1, 2] was “no serious adverse events”.

Source: publication PMC3527451, “A Pilot Randomized, Placebo Controlled, Double Blind Phase I Trial of the Novel SIRT1 Activator SRT2104 in Elderly Volunteers” (PLoS ONE, 2012)
